Measurements from patent US20250042879A1, “HETEROCYCLIC SUBSTITUTED 1,3,4-THIADIAZOLE AND PYRIDAZINE COMPOUNDS AND METHODS OF USING THE SAME” (Rgenta Therapeutics, Inc., priority 2021, published 2025).
Where a name gives a salt, the structure may show the parent alone.

tested on: HTT; assay: Mini-gene reporter assay-HTT (firefly luciferase, exon inclusion); assay type: cell-based; details: HTT Minigene, 5 μM; read-out: % Efficacy at 5 μM
Description: Mini-gene reporter constructs for each target site were constructed by first PCR amplifying the region-of-interest including the sequence of the alternatively skipped, sequences of the immediate upstream and downstream introns, and sequences of the immediate upstream and downstream exons. Then the 3′end of the amplified sequence was ligated to a firefly luciferase reporter gene and cloned into the pcDNA3.1 vector backbone. The final reporter construct was transiently transfected into HEK293 cells using Lipofectamine 3000 transfection reagents. Compounds that can induce the inclusion of the skipped exon in the reporter construct would increase the reporter firefly luciferase activity.
Test compounds were diluted in duplicates and dispensed into an assay plate. Transient mini-gene reporter cell line stock was resuspended and dispensed into the assay plate. Assay plates were then centrifuged and incubated. A luciferase reagent (e.g. ONE-Glo firefly luciferase reagent from Promega®) was added to the assay plate and the luminescence (RLU) signals recorded. EC50 values were determined by curve fitting in Levenberg-Marquardt algorithm.

Row | Structure (SMILES) | Emax at 5 µM [%]
1 | COc1cc(-c2ccc(-c3ccc(C4CN(C5CC6(COC(C)C6)C5)C4)nn3)c(O)c2)cc2cn(C)nc12 (centres unmarked) [Compound 188] | 25 to 75
2 | COc1cc(-c2ccc(-c3ccc(C4CN(Cc5ccc(O)nc5)C4)nn3)c(O)c2)cc2cn(C)nc12 [Compound 159] | 25 to 75
3 | Cc1cn2cc(-c3ccc(-c4ccc(C5CN(CC6CC6C)C5)nn4)c(O)c3)cc(F)c2n1 (centres unmarked) [Compound 105] | > 750
4 | COc1ccc(CN2CC(c3ccc(-c4ccc(-c5cc(OC)c6nn(C)cc6c5)cc4O)nn3)C2)cn1 [Compound 153] | < 25
5 | COc1cc(-c2ccc(-c3ccc(C4CN(CC(C)(C)C)C4)nn3)c(O)c2)cc2cn(C)nc12 [Compound 136] | > 750
6 | COc1cc(-c2ccc(-c3ccc(C4CN(Cc5csnn5)C4)nn3)c(O)c2)cc2cn(C)nc12 [Compound 140] | < 25
7 | Cc1cn2cc(-c3ccc(-c4ccc(C5CN(Cc6cc[nH]c6)C5)nn4)c(O)c3)cc(F)c2n1 [Compound 98] | > 750
8 | Cc1cn2cc(-c3ccc(-c4ccc(C5CN(Cc6cnn(C)c6)C5)nn4)c(O)c3)cc(F)c2n1 [Compound 71] | > 750
9 | COCn1nccc1CN1CC(c2ccc(-c3ccc(-c4cc(F)c5nc(C)cn5c4)cc3O)nn2)C1 [Compound 127] | < 25
10 | Cc1cn2cc(-c3ccc(-c4ccc(C5CN(Cc6cn(C)cn6)C5)nn4)c(O)c3)cc(F)c2n1 [Compound 100] | 25 to 75
11 | Cc1cn2cc(-c3ccc(-c4ccc(C5CN(Cc6ccn(C)n6)C5)nn4)c(O)c3)cc(F)c2n1 [Compound 80] | 25 to 75
12 | Cc1cn2cc(-c3ccc(-c4ccc(C5CN(C6CCc7cn[nH]c7C6)C5)nn4)c(O)c3)cc(F)c2n1 (centres unmarked) [Compound 128] | 25 to 75
13 | COc1cc(-c2ccc(-c3ccc(C4CN(C5CCCOCC5)C4)nn3)c(O)c2)cc2cn(C)nc12 (centres unmarked) [Compound 155] | > 750
14 | Cc1cn2cc(-c3ccc(-c4ccc(C5CN(C(C)Cn6cncn6)C5)nn4)c(O)c3)cc(F)c2n1 (centres unmarked) [Compound 120] | < 25
15 | CCC(COC)N1CC(c2ccc(-c3ccc(-c4cc(F)c5nc(C)cn5c4)cc3O)nn2)C1 (centres unmarked) [Compound 92] | > 750
16 | Cc1cn2cc(-c3ccc(-c4ccc(C5CN(Cc6cocn6)C5)nn4)c(O)c3)cc(F)c2n1 [Compound 101] | 25 to 75
17 | COc1cc(-c2ccc(-c3ccc(C4CN(C5CC6(CCOCC6)C5)C4)nn3)c(O)c2)cc2cn(C)nc12 [Compound 171] | 25 to 75
18 | COc1cc(-c2ccc(-c3ccc(C4CN(CC(C)CCC#N)C4)nn3)c(O)c2)cc2cn(C)nc12 (centres unmarked) [Compound 169] | > 750
19 | COC1CC(N2CC(c3ccc(-c4ccc(-c5cc(F)c6nc(C)cn6c5)cc4O)nn3)C2)C1 (centres unmarked) [Compound 103] | 25 to 75

Row | Structure (SMILES) | Emax at 5 µM [%]
20 | Cc1cn2cc(-c3ccc(-c4ccc(C5CN(Cc6cn(C(C)C)nn6)C5)nn4)c(O)c3)cc(F)c2n1 [Compound 116] | 25 to 75
21 | Cc1cn2cc(-c3ccc(-c4ccc(C5CN(Cc6cc(C)n(C)n6)C5)nn4)c(O)c3)cc(F)c2n1 [Compound 96] | < 25
22 | COc1cc(-c2ccc(-c3ccc(C4CN(CC5(SC)CC5)C4)nn3)c(O)c2)cc2cn(C)nc12 [Compound 174] | 25 to 75
23 | CCc1ncc(CN2CC(c3ccc(-c4ccc(-c5cc(OC)c6nn(C)cc6c5)cc4O)nn3)C2)cn1 [Compound 175] | 25 to 75
24 | Cc1cn2cc(-c3ccc(-c4ccc(C5CN(Cc6cnn(C)n6)C5)nn4)c(O)c3)cc(F)c2n1 [Compound 117] | 25 to 75
25 | COc1cc(-c2ccc(-c3ccc(C4CN(Cc5cnsc5)C4)nn3)c(O)c2)cc2cn(C)nc12 [Compound 182] | 25 to 75
26 | COc1cc(-c2ccc(-c3ccc(C4CN(Cc5ccccn5)C4)nn3)c(O)c2)cc2cn(C)nc12 [Compound 129] | < 25
27 | COc1cc(-c2ccc(-c3ccc(C4CN(Cc5ocnc5C)C4)nn3)c(O)c2)cc2cn(C)nc12 [Compound 170] | < 25
28 | CCN1CCC(N2CC(c3ccc(-c4ccc(-c5cc(OC)c6nn(C)cc6c5)cc4O)nn3)C2)CC1 [Compound 132] | < 25
29 | Cc1cn2cc(-c3ccc(-c4ccc(C5CN(Cc6cc[nH]n6)C5)nn4)c(O)c3)cc(F)c2n1 [Compound 72] | > 750
30 | Cc1cn2cc(-c3ccc(-c4ccc(C5CN(CC6(C(F)F)CC6)C5)nn4)c(O)c3)cc(F)c2n1 [Compound 112] | 25 to 75
31 | COc1cc(-c2ccc(-c3ccc(C4CN(C(C)COC(C)C)C4)nn3)c(O)c2)cc2cn(C)nc12 (centres unmarked) [Compound 148] | 25 to 75
32 | COc1cc(-c2ccc(-c3ccc(C4CN(Cc5nc(C)ccc5O)C4)nn3)c(O)c2)cc2cn(C)nc12 [Compound 149] | 25 to 75
33 | COc1cc(-c2ccc(-c3ccc(C4CN(C5CCCSC5)C4)nn3)c(O)c2)cc2cn(C)nc12 (centres unmarked) [Compound 142] | 25 to 75
34 | CCC(C)(CN1CC(c2ccc(-c3ccc(-c4cc(OC)c5nn(C)cc5c4)cc3O)nn2)C1)OC (centres unmarked) [Compound 178] | < 25
35 | Cc1cn2cc(-c3ccc(-c4ccc(C5CN(C6CCOC7(CCC7)C6)C5)nn4)c(O)c3)cc(F)c2n1 (centres unmarked) [Compound 113] | 25 to 75
36 | Cc1cn2cc(-c3ccc(-c4ccc(C5CN(C6CC7(COC(C)C7)C6)C5)nn4)c(O)c3)cc(F)c2n1 (centres unmarked) [Compound 124] | 25 to 75
37 | COc1cc(-c2ccc(-c3ccc(C4CN(C(C)CC5CCOC5)C4)nn3)c(O)c2)cc2cn(C)nc12 (centres unmarked) [Compound 158] | > 750
38 | COc1cc(-c2ccc(-c3ccc(C4CN(CC5CC6CC6C5)C4)nn3)c(O)c2)cc2cn(C)nc12 (centres unmarked) [Compound 185] | 25 to 75

same assay, conditions: Homo sapiens; HTT mini-gene firefly luciferase reporter transiently transfected into HEK293 cells

Row | EC50 [nM] | Structure (SMILES)
39 | 500 to 1000 | COc1cc(-c2ccc(-c3ccc(C4CN(C5CCOCC5)C4)nn3)c(O)c2)cc2cn(C)nc12 [Compound 49, 5-(7-methoxy-2-methyl-2H-indazol-5-yl)-2-{6-[1-(oxan-4-yl)azetidin-3-yl]pyridazin-3-yl}phenol]
40 | ≥ 1000 | COc1cc(-c2ccc(-c3ccc(C4CN(C5CCOCC5)C4)nn3)c(O)c2)nc2cn(C)nc12 [Compound 65, 5-(7-methoxy-2-methyl-2H-pyrazolo[4,3-b]pyridin-5-yl)-2-(6-(1-(tetrahydro-2H-pyran-4-yl)azetidin-3-yl)pyridazin-3-yl)phenol hydrochloride]
41 | 500 to 1000 | Cc1cc2cc(-c3ccc(-c4ccc(C5CNC5)nn4)c(O)c3)cc(C)n2n1 [Compound 29, 2-[6-(azetidin-3-yl)pyridazin-3-yl]-5-{2,7-dimethylpyrazolo[1,5-a]pyridin-5-yl}phenol]
42 | 500 to 1000 | Cc1cc(-c2ccc(-c3ccc(C4CNC4)nn3)c(O)c2)cc2cn(C)nc12 [Compound 6, 2-(6-(azetidin-3-yl)pyridazin-3-yl)-5-(2,7-dimethyl-2H-indazol-5-yl)phenol hydrochloride]
43 | 500 to 1000 | CCN1CC(c2ccc(-c3ccc(-c4cc5cn(C)nc5cn4)cc3O)nn2)C1 [Compound 46, 2-[6-(1-ethylazetidin-3-yl)pyridazin-3-yl]-5-{2-methyl-2H-pyrazolo[3,4-c]pyridin-5-yl}phenol]
44 | ≥ 1000 | CCN1CC(c2ccc(-c3ccc(-c4cc(C)c5nc(C)cn5n4)cc3O)nn2)C1 [Compound 42, 5-{2,8-dimethylimidazo[1,2-b]pyridazin-6-yl}-2-[6-(1-ethylazetidin-3-yl)pyridazin-3-yl]phenol]
45 | 500 to 1000 | Cc1cn2cc(-c3ccc(-c4ccc(C5CN(C)C5)nn4)c(O)c3)nc(C)c2n1 [Compound 20, 5-{2,8-dimethylimidazo[1,2-a]pyrazin-6-yl}-2-[6-(1-methylazetidin-3-yl)pyridazin-3-yl]phenol]
46 | ≥ 1000 | Cc1cc(-c2ccc(-c3ccc(C4CN(C5CCOCC5)C4)nn3)c(O)c2)nc2cn(C)nc12 [Compound 61, 5-{2,7-dimethyl-2H-pyrazolo[4,3-b]pyridin-5-yl}-2-{6-[1-(oxan-4-yl)azetidin-3-yl]pyridazin-3-yl}phenol]
47 | 500 to 1000 | Cc1cc2cc(-c3ccc(-c4ccc(C5CN(C)C5)nn4)c(O)c3)cc(C)n2n1 [Compound 40, 5-{2,7-dimethylpyrazolo[1,5-a]pyridin-5-yl}-2-[6-(1-methylazetidin-3-yl)pyridazin-3-yl]phenol]
48 | 50 to 500 | CCN1CC(c2ccc(-c3ccc(-c4ccc5nn(C)cc5n4)cc3O)nn2)C1 [Compound 50, 2-[6-(1-ethylazetidin-3-yl)pyridazin-3-yl]-5-{2-methyl-2H-pyrazolo[4,3-b]pyridin-5-yl}phenol]
49 | ≥ 1000 | Cc1cc2cc(-c3ccc(-c4ccc(C5CNC5)nn4)c(O)c3)ccn2n1 [Compound 13, 2-[6-(azetidin-3-yl)pyridazin-3-yl]-5-{2-methylpyrazolo[1,5-a]pyridin-5-yl}phenol]
50 | 500 to 1000 | CCN1CC(c2ccc(-c3ccc(-c4cc5cn(C)nc5c(O)n4)cc3O)nn2)C1 [Compound 53, 5-{4-[6-(1-ethylazetidin-3-yl)pyridazin-3-yl]-3-hydroxyphenyl}-2-methyl-2H-pyrazolo[3,4-c]pyridin-7-ol]
51 | ≥ 1000 | CCN1CC(c2ccc(-c3ccc(-c4cn5cc(C)nc5c(C)n4)cc3O)nn2)C1 [Compound 32, 5-{2,8-dimethylimidazo[1,2-a]pyrazin-6-yl}-2-[6-(1-ethylazetidin-3-yl)pyridazin-3-yl]phenol]

Row | Structure (SMILES) | EC50 [nM]
52 | Cc1cn2cc(-c3ccc(-c4ccc(C5CNC5)nn4)c(O)c3)cc(C)c2n1 [Compound 4, 2-(6-(azetidin-3-yl)pyridazin-3-yl)-5-(2,8-dimethylimidazo[1,2-a]pyridin-6-yl)phenol hydrochloride] | ≥ 1000
53 | Cc1cn2cc(-c3ccc(-c4ccc(C5CNC5)nn4)c(O)c3)cc(C(F)(F)F)c2n1 [Compound 5, 2-[6-(azetidin-3-yl)pyridazin-3-yl]-5-[2-methyl-8-(trifluoromethyl)imidazo[1,2-a]pyridin-6-yl]phenol] | 50 to 500
